The target in experiment [1] is human dopamine D2L receptor (Homo sapiens, UniProt P14416). The experiment is described as follows: Dopamine D2L radioligand binding ([3H]Spiperone). The following applies: compound at 1 μM. From the text: Non-specific binding was estimated in the presence of […] Haloperidol. Receptor proteins were filtered and washed, the filters were then counted to determine [^3H]Spiperone specifically bound. […] Biochemical assay results are presented as the percent inhibition of specific binding in Table 9.

The target of experiment [2] is T1, human recombinant serotonin (5-Hydroxytryptamine) 5-HT2A receptor (Homo sapiens, UniProt P28223).
T1 construct: expressed in transfected cells; host or cells: Chinese hamster ovary (CHO-K1) cells
Description: Serotonin 5-HT2A radioligand binding ([3H]Ketanserin). Particulars: for inhibition at 1 µM: read-out: Inhibition of ligand binding, Serotonin 5-HT2A (percent inhibition of specific binding), compound at 1 μM. The method, then:
Compounds of the invention were incubated with 0.5 nM [^3H]Ketanserin for 60 min. at 25° C. Non-specific binding was estimated in the presence of 1 μM Mianserin. Receptor proteins were filtered and washed, the filters were then counted to determine [^3H]Ketanserin specifically bound.

The target in experiment [3] is human recombinant serotonin (5-Hydroxytryptamine) 5-HT7 receptor (Homo sapiens, UniProt P34969). The experiment is described as follows: Serotonin 5-HT7 radioligand binding ([3H]LSD). The following applies: compound at 1 μM; read-out: Inhibition of ligand binding, Serotonin 5-HT7 (percent inhibition of specific binding). The text has this: Receptor proteins were filtered and washed, the filters were then counted to determine [^3H]LSD specifically bound.

The target in a further experiment is histamine receptor H1 (Homo sapiens, UniProt P35367). The experiment is described as follows: Histamine H1 radioligand binding ([3H]Pyrilamine). The following applies: for inhibition at 1 µM: read-out: Histamine Binding (1 μM) H1, percent inhibition of specific binding, 1 μM. In outline:
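Values are percent inhibition of specific [3H]pyrilamine (1.2 nM) binding with compounds at ≤1 μM (1% DMSO vehicle); 180 min incubation at 25 °C, pH 7.4 Tris buffer, on CHO-expressed human H1 receptor; 1 μM pyrilamine defined nonspecific binding, bound ligand counted after filtration.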

In experiment [4] the target is T2, human recombinant serotonin (5-Hydroxytryptamine) 5-HT2C receptor (Homo sapiens, UniProt P28335).
T2 construct: expressed in transfected cells; host or cells: Chinese hamster ovary (CHO-K1) cells
T2 sequence (P28335 33-458): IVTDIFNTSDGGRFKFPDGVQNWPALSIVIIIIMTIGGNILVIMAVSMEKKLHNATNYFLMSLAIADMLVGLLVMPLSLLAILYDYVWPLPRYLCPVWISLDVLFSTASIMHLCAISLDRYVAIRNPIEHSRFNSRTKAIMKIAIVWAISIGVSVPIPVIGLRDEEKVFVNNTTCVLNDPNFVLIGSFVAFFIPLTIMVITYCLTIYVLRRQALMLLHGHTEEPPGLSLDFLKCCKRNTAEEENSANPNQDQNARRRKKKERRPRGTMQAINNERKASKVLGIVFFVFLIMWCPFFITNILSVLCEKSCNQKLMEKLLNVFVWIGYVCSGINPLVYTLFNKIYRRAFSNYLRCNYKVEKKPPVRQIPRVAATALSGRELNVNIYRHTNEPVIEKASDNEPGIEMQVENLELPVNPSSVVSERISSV
The experiment is described as follows: Serotonin 5-HT2C radioligand binding ([3H]Mesulergine). Particulars: read-out: Inhibition of ligand binding, Serotonin 5-HT2C (percent inhibition of specific binding); for inhibition at 1 µM: compound at 1 μM. The procedure, abridged:
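Compounds tested at 1 μM or lower (1% DMSO vehicle) for displacement of 1 nM [3H]Mesulergine over 60 min at 25° C. Specific binding determined by filtration counting, with 1 μM Mianserin defining non-specific binding; values are percent inhibition.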

Experiment [5] concerns the target T3, human recombinant histamine H2 receptor (Homo sapiens, UniProt P25021).
T3 construct: expressed in transfected cells; host or cells: Chinese hamster ovary (CHO) K1 cells
Description: Histamine H2 radioligand binding ([125I]Aminopotentidine). Particulars: read-out: Histamine Binding (1 μM) H2, percent inhibition of specific binding, 1 μM. The procedure, abridged: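 Receptor source: human recombinant H2 in CHO-K1 cells, assayed in 50 mM phosphate pH 7.4. Competition against 0.1 nM [125I]aminopotentidine, 120 min, 25 °C; 3 μM tiotidine sets nonspecific binding, filter-bound counts give specific binding.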

Experiment [6] deals with T4, human recombinant serotonin (5-Hydroxytryptamine) 5-HT6 receptor (Homo sapiens, UniProt P50406).
T4 construct: expressed in transfected cells; host or cells: human HeLa cells
The experiment is described as follows: Serotonin 5-HT6 radioligand binding ([3H]LSD). The following applies: read-out: Inhibition of ligand binding, Serotonin 5-HT6 (percent inhibition of specific binding); for inhibition at 1 µM: compound at 1 μM. On the procedure: Compounds of the invention were incubated with 1.5 nM [3H]Lysergic acid diethylamide (LSD) for 120 min. at 37° C. […] Receptor proteins were filtered and washed, the filters were then counted to determine [3H]LSD specifically bound. Compounds were screened at 1 μM or lower, using 1% DMSO as vehicle. Biochemical assay results are presented as the percent inhibition of specific binding in Table 10.

Where [7] appears, read: percent inhibition of specific binding, read-out: Inhibition of ligand binding, Dopamine D2L.

Where “and” joins values, the source holds several entries; their conditions need not be identical. Equal entries are not always repeated. Where two headings read alike, the source gives them in different places.

Here are results for twelve compounds from patent US8906925B2, “Pyrido[4,3-B]indoles containing rigid moieties” (Medivation Technologies, Inc., priority 2008, dated 2014).

Chain of human dopamine D2L receptor (P14416 whole entry): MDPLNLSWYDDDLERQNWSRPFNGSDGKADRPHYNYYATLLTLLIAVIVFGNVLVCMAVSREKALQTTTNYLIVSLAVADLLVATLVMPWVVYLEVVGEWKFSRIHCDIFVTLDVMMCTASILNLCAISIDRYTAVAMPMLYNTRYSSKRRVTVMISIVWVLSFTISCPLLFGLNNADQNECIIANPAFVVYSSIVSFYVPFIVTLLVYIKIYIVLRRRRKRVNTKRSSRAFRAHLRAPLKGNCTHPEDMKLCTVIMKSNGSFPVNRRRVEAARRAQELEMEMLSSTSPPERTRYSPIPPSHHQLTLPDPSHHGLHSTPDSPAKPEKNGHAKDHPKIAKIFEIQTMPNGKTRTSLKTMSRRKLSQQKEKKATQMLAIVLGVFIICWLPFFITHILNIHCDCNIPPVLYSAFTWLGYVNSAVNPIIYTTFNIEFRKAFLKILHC
T3 sequence (P25021 whole entry): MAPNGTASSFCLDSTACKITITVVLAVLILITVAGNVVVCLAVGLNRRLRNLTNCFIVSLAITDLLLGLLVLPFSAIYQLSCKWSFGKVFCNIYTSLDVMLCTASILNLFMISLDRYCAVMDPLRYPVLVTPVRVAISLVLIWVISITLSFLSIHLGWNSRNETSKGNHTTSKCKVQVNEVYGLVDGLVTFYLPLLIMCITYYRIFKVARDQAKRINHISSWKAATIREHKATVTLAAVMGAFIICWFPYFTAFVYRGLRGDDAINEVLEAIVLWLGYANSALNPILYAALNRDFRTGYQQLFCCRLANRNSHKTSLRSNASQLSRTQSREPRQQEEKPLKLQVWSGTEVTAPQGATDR
Chain of histamine receptor H1 (P35367 whole entry): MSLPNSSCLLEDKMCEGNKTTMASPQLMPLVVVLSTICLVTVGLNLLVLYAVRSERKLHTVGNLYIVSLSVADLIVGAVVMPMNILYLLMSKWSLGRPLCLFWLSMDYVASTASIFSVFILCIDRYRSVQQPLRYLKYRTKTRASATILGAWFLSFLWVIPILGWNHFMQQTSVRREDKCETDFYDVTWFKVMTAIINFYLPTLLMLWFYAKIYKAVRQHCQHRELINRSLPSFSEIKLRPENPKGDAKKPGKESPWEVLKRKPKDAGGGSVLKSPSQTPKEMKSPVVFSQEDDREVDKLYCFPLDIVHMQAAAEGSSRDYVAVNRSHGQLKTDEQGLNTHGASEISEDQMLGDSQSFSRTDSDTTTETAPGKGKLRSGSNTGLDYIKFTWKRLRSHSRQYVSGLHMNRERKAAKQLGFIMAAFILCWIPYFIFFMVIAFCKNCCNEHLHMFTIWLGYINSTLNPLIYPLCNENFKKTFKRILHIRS
T4 sequence (P50406 whole entry): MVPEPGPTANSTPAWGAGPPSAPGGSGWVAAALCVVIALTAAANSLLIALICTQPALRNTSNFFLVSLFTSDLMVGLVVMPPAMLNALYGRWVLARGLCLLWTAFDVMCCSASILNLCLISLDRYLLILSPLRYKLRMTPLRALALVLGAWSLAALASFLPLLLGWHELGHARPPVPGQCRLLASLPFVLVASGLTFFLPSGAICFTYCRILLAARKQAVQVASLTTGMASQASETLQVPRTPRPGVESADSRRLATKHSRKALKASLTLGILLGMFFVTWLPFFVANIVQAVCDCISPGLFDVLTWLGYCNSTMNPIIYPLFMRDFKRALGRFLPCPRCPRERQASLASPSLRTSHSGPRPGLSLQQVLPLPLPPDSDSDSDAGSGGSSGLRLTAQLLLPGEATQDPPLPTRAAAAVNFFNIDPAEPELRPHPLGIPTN
Chain of human recombinant serotonin (5-Hydroxytryptamine) 5-HT7 receptor (P34969 whole entry): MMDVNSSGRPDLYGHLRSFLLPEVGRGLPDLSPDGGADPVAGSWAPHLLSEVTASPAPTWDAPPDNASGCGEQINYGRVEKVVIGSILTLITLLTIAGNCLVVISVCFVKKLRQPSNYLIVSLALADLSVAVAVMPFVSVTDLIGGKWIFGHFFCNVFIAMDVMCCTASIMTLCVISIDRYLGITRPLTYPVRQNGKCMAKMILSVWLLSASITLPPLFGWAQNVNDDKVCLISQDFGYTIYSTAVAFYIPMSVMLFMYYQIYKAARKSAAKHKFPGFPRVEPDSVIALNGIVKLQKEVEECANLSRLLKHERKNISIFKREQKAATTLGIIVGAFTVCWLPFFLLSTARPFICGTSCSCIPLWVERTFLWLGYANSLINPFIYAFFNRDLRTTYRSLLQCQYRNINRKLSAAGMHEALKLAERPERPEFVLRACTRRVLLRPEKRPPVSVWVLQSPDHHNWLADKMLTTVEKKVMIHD
T1 sequence (P28223 whole entry): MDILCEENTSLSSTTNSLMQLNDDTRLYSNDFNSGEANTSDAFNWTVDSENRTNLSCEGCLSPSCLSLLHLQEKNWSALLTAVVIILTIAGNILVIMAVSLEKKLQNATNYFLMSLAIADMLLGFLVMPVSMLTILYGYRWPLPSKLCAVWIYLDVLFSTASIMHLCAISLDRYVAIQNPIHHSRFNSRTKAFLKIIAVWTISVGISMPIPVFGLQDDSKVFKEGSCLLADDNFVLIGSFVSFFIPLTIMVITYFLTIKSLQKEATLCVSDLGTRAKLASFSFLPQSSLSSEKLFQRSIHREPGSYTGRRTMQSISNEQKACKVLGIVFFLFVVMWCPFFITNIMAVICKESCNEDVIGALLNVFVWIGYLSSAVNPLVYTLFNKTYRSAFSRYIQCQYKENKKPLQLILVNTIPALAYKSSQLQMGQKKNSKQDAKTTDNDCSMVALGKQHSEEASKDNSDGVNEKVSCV

By inhibition is commonly meant the drop in the measured response relative to a control, in per cent. For the compound `COc1ccc2c(c1)c1c(n2CC(C)(O)c2ccncc2)CCN(C)C1` (stereo not shown) [Compound 188, 1-(8-methoxy-2-methyl-3,4-dihydro-1H-pyrido[4,3-b]indol-5(2H)-yl)-2-(pyridin-4-yl)propan-2-ol], the inhibition at 1 µM is -5% in experiment [1] (setting [7]); 50% in experiment [2]; 45% in experiment [3]; 8% on histamine receptor H1; 66% in experiment [4]; 13% in experiment [5]. Besides, in experiment [6], the inhibition at 1 µM stood at 9%.

On to `C/C(=C\n1c2c(c3ccc(Cl)cc31)CN(C)CC2)c1ccc(F)cc1` [Compound 228, (E)-7-chloro-5-(2-(4-fluorophenyl)prop-1-enyl)-2-methyl-2,3,4,5-tetrahydro-1H-pyrido[4,3-b]indole], for which the inhibition at 1 µM in experiment [1] (setting [7]) was determined as 98%; in experiment [2] it was 101%; in experiment [3], 97%; at histamine receptor H1 it was 66%; in experiment [4] it was 97%; in experiment [5], 102%. In experiment [6], the inhibition at 1 µM turned out to be 106%.

Take `C/C(=C/n1c2c(c3cc(C)ccc31)CN(C)CC2)c1cc(F)c(F)cc1Cl` [Compound 220, (Z)-5-(2-(2-chloro-4,5-difluorophenyl)prop-1-enyl)-2,8-dimethyl-2,3,4,5-tetrahydro-1H-pyrido[4,3-b]indole]: the inhibition at 1 µM in experiment [1] (setting [7]) stood at 32%; in experiment [2] it was 99%; in experiment [3] it was 104%; on histamine receptor H1, 91%; in experiment [4] it was 98%; in experiment [5], 99%. For the same compound, in experiment [6], the inhibition at 1 µM was 99%.

Consider `C/C(=C\n1c2c(c3cc(C)ccc31)CN(C)CC2)c1cc(Cl)cc(Cl)c1` [Compound 218, (E)-5-(2-(3,5-dichlorophenyl)prop-1-enyl)-2,8-dimethyl-2,3,4,5-tetrahydro-1H-pyrido[4,3-b]indole], for which the “Inhibition of ligand binding, Dopamine D2L” value in experiment [1] (percent inhibition of specific binding, 1 µM) amounted to 43%. Also, the inhibition at 1 µM turned out to be 40% in experiment [1] (setting [7]); 99% in experiment [2]; 93% in experiment [3]; 96% in experiment [4]; 98% in experiment [5]; 99% in experiment [6]. For the same compound, the inhibition at 0.1 µM in experiment [2] (read-out: Inhibition of ligand binding, Serotonin 5-HT2A (percent inhibition of specific binding), compound at 0.1 μM) was determined as 94%; in experiment [4] (compound at 0.1 μM), 92%; in experiment [6] (compound at 0.1 μM), 85%. For the same compound, the “Histamine Binding (1 μM) H1, percent inhibition of specific binding” value at histamine receptor H1 (1 μM) is 78% and 79%.

Take `C/C(=C\n1c2c(c3cccc(Cl)c31)CN(C)CC2)c1ccncc1` [Compound 222, (E)-6-chloro-2-methyl-5-(2-(pyridin-4-yl)prop-1-enyl)-2,3,4,5-tetrahydro-1H-pyrido[4,3-b]indole]: the inhibition at 1 µM was determined as 82% in experiment [1] (setting [7]); 100% in experiment [2]; 69% in experiment [3]; 25% at histamine receptor H1; 99% in experiment [4]; 91% in experiment [5]. Moreover, the inhibition at 1 µM in experiment [6] was determined as 102%.

With `COc1ccc(C#Cn2c3c(c4cc(C)ccc42)CN(C)CC3)cc1F` [Compound No. 485, 5-((3-fluoro-4-methoxyphenyl)ethynyl)-2,8-dimethyl-2,3,4,5-tetrahydro-1H-pyrido[4,3-b]indole], the inhibition at 1 µM was 14% in experiment [1] ([…] [3H]Spiperone, read-out: Inhibition of ligand binding, Dopamine D2L (percent inhibition of specific binding)); 96% in experiment [2]; 77% in experiment [3]; -6% at histamine receptor H1; 102% in experiment [4]; 97% in experiment [5]. The inhibition at 1 µM in experiment [6] was 89%.

Turning to `C/C(=C/n1c2c(c3cc(Cl)c(Cl)cc31)CN(C)CC2)c1ccncc1` [Compound 244, (Z)-7,8-dichloro-2-methyl-5-(2-(pyridin-4-yl)prop-1-enyl)-2,3,4,5-tetrahydro-1H-pyrido[4,3-b]indole], the inhibition at 1 µM turned out to be 86% in experiment [1] (setting [7]); 103% in experiment [2]; 99% in experiment [3]; 87% on histamine receptor H1; 99% in experiment [4]; 88% in experiment [5]. Also, in experiment [6], the inhibition at 1 µM came to 106%.

In the case of `CN1CCc2c(c3cccc(F)c3n2CC(C)(O)c2ccncc2)C1` (stereo not shown) [Compound 185, 1-(6-fluoro-2-methyl-3,4-dihydro-1H-pyrido[4,3-b]indol-5(2H)-yl)-2-(pyridin-4-yl)propan-2-ol], the inhibition at 1 µM was -1% in experiment [1] (setting [7]); 82% in experiment [2]; 41% in experiment [3]; 8% on histamine receptor H1; 83% in experiment [4]; 29% in experiment [5]. Further, the inhibition at 1 µM in experiment [6] worked out at 26%.

Turning to `C/C(=C\n1c2c(c3cc(Cl)ccc31)CN(C)CC2)c1ccc(F)c(F)c1` [Compound 98, (E)-8-chloro-5-(2-(3,4-difluorophenyl)prop-1-enyl)-2,3,4,5-tetrahydro-2-methyl-1H-pyrido[4,3-b]indole], the inhibition at 1 µM amounted to 78% in experiment [1] (setting [7]); 95% in experiment [2]; 94% in experiment [3]; 53% at histamine receptor H1; 100% in experiment [4]; 99% in experiment [5]. The inhibition at 1 µM in experiment [6] came out at 100%.

Take `CN1CCc2c(c3c(Cl)c(Cl)ccc3n2CC(C)(O)c2ccncc2)C1` (stereo not shown) [Compound 190, 1-(8,9-dichloro-2-methyl-3,4-dihydro-1H-pyrido[4,3-b]indol-5(2H)-yl)-2-(pyridin-4-yl)propan-2-ol]: the inhibition at 1 µM is -15% in experiment [1] (setting [7]); 71% in experiment [2]; 47% in experiment [3]; -11% on histamine receptor H1; 52% in experiment [4]; 9% in experiment [5]. Besides, the inhibition at 1 µM in experiment [6] was 31%.

Regarding `C/C(=C\n1c2c(c3c(Cl)c(Cl)ccc31)CN(C)CC2)c1ccc(F)cc1` [Compound 232, (E)-8,9-dichloro-5-(2-(4-fluorophenyl)prop-1-enyl)-2-methyl-2,3,4,5-tetrahydro-1H-pyrido[4,3-b]indole], the inhibition at 1 µM in experiment [1] (setting [7]) is 91%; in experiment [2], 99%; in experiment [3], 84%; on histamine receptor H1, 71%; in experiment [4] it was 98%; in experiment [5] it was 95%. Moreover, in experiment [6], the inhibition at 1 µM came out at 103%.

For `C/C(=C\n1c2c(c3cc(C)ccc31)CN(C)CC2)c1cc(F)c(F)cc1Cl` [Compound 221, (E)-5-(2-(2-chloro-4,5-difluorophenyl)prop-1-enyl)-2,8-dimethyl-2,3,4,5-tetrahydro-1H-pyrido[4,3-b]indole], the inhibition at 1 µM in experiment [1] (setting [7]) came out at 34%; in experiment [2] it was 97%; in experiment [3], 93%; on histamine receptor H1, 90%; in experiment [4], 99%; in experiment [5], 98%. Besides, in experiment [6], the inhibition at 1 µM worked out at 95%.
